Data on 5 compounds can be found in ChEMBL document CHEMBL1136325, “Synthesis and biological evaluation of GABA derivatives able to cross the blood-brain barrier in rats” (2003).

Active and inactive are the calls of the source. The rule behind the calls is not given here.

For assay [1], the species on record is Cavia porcellus. Nature of the assay: Effect on ileal tone in guinea pig up to 100 uM; No effect. The assay is classed as functional.
Assay [2] addresses GABA-B receptor (Homo sapiens) (UniProt Q9UBS5+O75899). The assay is described as follows: Antagonistic potency against Gamma-aminobutyric acid type B receptor of guinea pig ileum. The following applies: Cavia porcellus, target entry is the homologue from another species. It counts as functional, tissue-based.
Assay [3] relates to Rattus norvegicus. The assay is described as follows: In vivo pentobarbital (30 mg/kg ip)-induced hypnosis in rats; Moderate dyspnea. It counts as functional, organism-based.
Assay [4] has as its system Rattus norvegicus. Nature of the assay: In vivo pentobarbital (30 mg/kg ip)-induced hypnosis in rats after iv administration at a dose of 23 umol. It counts as functional.
Assay [5] deals with Rattus norvegicus. Nature of the assay: In vivo pentobarbital (30 mg/kg ip)-induced hypnosis in rats after iv administration at a dose of 46 umol. It counts as functional.
Assay [6] relates to Rattus norvegicus. The assay is described as follows: In vivo pentobarbital (30 mg/kg ip)-induced hypnosis in rats after intracerebroventricular administration at a dose of 15.6 uL. It counts as functional.
Assay [7] deals with Rattus norvegicus. The assay is described as follows: In vivo pentobarbital (30 mg/kg ip)-induced hypnosis in rats after iv administration at a dose of 368 umol. The assay is classed as functional.
For assay [8], the species on record is Cavia porcellus. The assay is described as follows: Inhibitory activity against L-glutamic decarboxylase treated from 0.01 to 10 mM concentrations of the compound; Inactive.
Assay [9] deals with Rattus norvegicus. Nature of the assay: In vivo pentobarbital (30 mg/kg ip)-induced hypnosis in rats after intracerebroventricular administration at a dose of 15.6 uL by pretreatment with atropine (1.0 mg/kg iv). It counts as functional.
For assay [10], the system named is Rattus norvegicus. Nature of the assay: In vivo pentobarbital (30 mg/kg ip)-induced hypnosis in rats after iv administration at a dose of 92 umol. It counts as functional.
The test system of assay [11] is Rattus norvegicus. The assay is described as follows: In vivo pentobarbital (30 mg/kg ip)-induced hypnosis in rats after iv administration at a dose of 184 umol. The assay is classed as functional.
Assay [12] deals with Rattus norvegicus. The assay is described as follows: In vivo pentobarbital (30 mg/kg ip)-induced hypnosis in rats after intracerebroventricular administration at a dose of 3.90 uL. It counts as functional.
In assay [13] the test system is Rattus norvegicus. Nature of the assay: In vivo pentobarbital (30 mg/kg ip)-induced hypnosis in rats after intracerebroventricular administration at a dose of 7.80 uL by pretreatment with atropine (1.0 mg/kg iv). The assay is classed as functional.
In assay [14] the test system is Rattus norvegicus. Nature of the assay: In vivo pentobarbital (30 mg/kg ip)-induced hypnosis in rats after intracerebroventricular administration at a dose of 7.80 uL. It counts as functional.
Assay [15] has as its system Rattus norvegicus. The assay is described as follows: In vivo pentobarbital (30 mg/kg ip)-induced hypnosis in rats after intracerebroventricular administration at a dose of 1.95uL. The assay is classed as functional.
Assay [16] is filed under the species Cavia porcellus. The assay is described as follows: Inhibitory activity against L-glutamate decarboxylase treated from 0.01 to 10 mM concentrations of the compound; Inactive.

On to `CN1C=CC(CC2C=CN(C)C=C2C(=O)NCCCC(=O)OCc2ccccc2)C(C(=O)NCCCC(=O)OCc2ccccc2)=C1` (centres undefined), for which the Effect entry in the assay listed under Cavia porcellus [1] was “inactive”. The compound also came in with a pD2 in assay [2] of 5.59. Further, the Adverse effect entry in the assay on Rattus norvegicus [3] is reported as “Moderate dyspnea”. For the same compound, the Hypnosis duration with Rattus norvegicus [4] worked out at 206 min; with Rattus norvegicus [5], 257 min.

Take `COS(=O)(=O)[O-].C[n+]1cccc(C(=O)NCCCC(=O)O)c1`: the Hypnosis duration with Rattus norvegicus [6] is on record as 100 min; in the assay on Rattus norvegicus [7], 153 min; in the assay with Rattus norvegicus [9], 158 min. For the same compound, in the assay listed under Cavia porcellus [1], the Ileal activity entry is “inactive”. The outcome in the assay filed under Cavia porcellus [8] was inactive.

Turning to `C[n+]1cccc(C(=O)NCCCC(=O)OCc2ccccc2)c1.[I-]`, the Hypnosis duration entry was “Moderate dyspnea” in the assay on Rattus norvegicus [3], 156 min with Rattus norvegicus [4], 207 min in the assay with Rattus norvegicus [5] and 194 min with Rattus norvegicus [10].

Consider `NCCCC(=O)O` [GAMMA-AMINOBUTYRIC ACID], for which the results for the Hypnosis duration in the assay with Rattus norvegicus [11] and in the assay with Rattus norvegicus [12] were 128 min and 188 min, respectively.

Turning to `CN1C=CC(CC2C=CN(C)C=C2C(=O)NCCCC(=O)[O-])C(C(=O)NCCCC(=O)[O-])=C1.[Na+].[Na+]` (centres undefined), the Hypnosis duration with Rattus norvegicus [13] is 184 min; in the assay on Rattus norvegicus [14] it was 60 min; with Rattus norvegicus [11] it was 80 min; with Rattus norvegicus [15], 147 min; in the assay on Rattus norvegicus [12], 142 min; in the assay on Rattus norvegicus [10], 149 min. Besides, the Ileal activity entry in the assay filed under Cavia porcellus [1] was “inactive”. Also, the outcome in the assay filed under Cavia porcellus [16] was inactive.
